# Where a name gives a salt, the structure may show the parent alone.
# Target: adenosine receptor
# Assay: adenosine receptor antagonism assayed by the procedure described in Proc. Natl. Acad. Sci. USA, 77, 5547 (1980)
# Type: binding
# Details: procedure of Proc. Natl. Acad. Sci. USA, 77, 5547 (1980)
# Source text: The relevant teachings of this manuscript are incorporated herein by reference.
row,Structure (SMILES),IC50
1,"CCn1c(=O)c2[nH]c(-c3cccc(S(=O)(=O)O)c3)nc2n(CC)c1=O [C2 H5, C2 H5, H, 3-SO3 K, 3-(1,3-diethyl-2,3,6,7-tetrahydro-2,6-dioxo-1H-purin-8-yl)benzenesulfonic acid potassium salt]",37000 nM
2,"CCn1c(=O)c2[nH]c(-c3ccc(S(=O)(=O)N4CCN(C)CC4)cc3)nc2n(CC)c1=O [C2 H5, C2 H5, H, 4-SO2 N(CH2 CH2)2 NCH3, 1-[[4-(1,3-Diethyl-2,3,6,7-tetrahydro-2,6,-dioxo-1H-purin-8-yl)phenyl]sulfonyl]-4-methyl-piperazine]",150 nM
3,"CCn1c(=O)c2[nH]c(-c3ccc(S(=O)(=O)NCCCN(C)C)cc3)nc2n(CC)c1=O [C2 H5, C2 H5, H, 4-SO2 NH(CH2)3 N(CH3)2, 4-(1,3-Diethyl-2,3,6,7-tetrahydro-2,6-dioxo-1H-purin-8-yl)-N-[3-(dimethylamino)propyl]benzenesulfonamide]",70 nM
4,"CCn1c(=O)c2[nH]c(-c3ccc(S(=O)(=O)O)cc3)nc2n(CC)c1=O [C2 H5, C2 H5, H, 4-SO3 K]",4900 nM
5,"CCCn1c(=O)c2[nH]c(-c3ccc(S(=O)(=O)O)cc3)nc2n(CCC)c1=O [n-C3 H7, n-C3 H7, H, 4-SO3 K, 4-(1,3-dipropyl-2,3,6,7-tetrahydro-2,6-dioxo-1H-purin-8-yl)benzenesulfonic acid potassium salt]",100 nM

# Now from value to compound:
row,IC50,Structure (SMILES)
1,550 nM,"CCn1c(=O)c2[nH]c(-c3cccc(S(=O)(=O)NCCN(C)C)c3)nc2n(CC)c1=O [C2 H5, C2 H5, H, 3-SO2 NH(CH2)2 N(CH3)2, 3-(1,3-Diethyl-2,3,6,7-tetrahydro-2,6,-dioxo-1H-purin-8-yl)-N-[2-(dimethylamino)ethyl]benzenesulfonamide]"
2,300 nM,"CCn1c(=O)c2[nH]c(-c3ccc(S(=O)(=O)N4CCOCC4)cc3)nc2n(CC)c1=O [C2 H5, C2 H5, H, 4-SO2 N(CH2 CH2)2 O, 4-[[4-(1,3-Diethyl-2,3,6,7-tetrahydro-2,6-dioxo-1H-purin-8-yl)phenyl]sulfonyl]morpholine]"
3,50 nM,"CCn1c(=O)c2[nH]c(-c3ccc(S(N)(=O)=O)cc3)nc2n(CC)c1=O [C2 H5, C2 H5, H, 4-SO2 NH2, 4-(1,3-diethyl-2,3,6,7-tetrahydro-2,6-dioxo-1H-purin-8-yl)benzenesulfonamide]"
4,10 nM,"CCCn1c(=O)c2[nH]c(-c3ccc(S(=O)(=O)NCCN(C)C)cc3)nc2n(CCC)c1=O [N-[2-(Dimethylamino)ethyl]-4-(2,3,6,7-tetrahydro-2,6-dioxo-1,3-dipropyl-1H-purin-8-yl)benzenesulfonamide]"

# Target: adenosine receptor
# Assay: not given
# Details: *Results reported in Proc. Natl. Acad. Sci. USA, 77, 5547(1980); cited from earlier work
row,Structure (SMILES),IC50
1,"Cn1c(=O)c2[nH]c(-c3ccc(S(=O)(=O)O)cc3)nc2n(C)c1=O [CH3, CH3, H, 4-SO3 H, 4-(1,3-dimethyl-2,3,6,7-tetrahydro-2,6-dioxo-1H-purin-8-yl)benzenesulfonicacid]",20 µM
2,Cn1c(=O)c2[nH]cnc2n(C)c1=O [theophylline],15 µM

# — patent publication US4452788A, “Substituted 8-phenylxanthines” (Warner-Lambert Company, priority 1982, dated 1984)
